Assay results taken from ChEMBL document CHEMBL1201862, “PubChem BioAssay data set” (2004).
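1) Cells in 96-well plates. 2) Compound, 48 h, 5 concentrations. 3) Linear interpolation between surrounding doses. 4) Unreached endpoint = highest concentration. Abbreviation: GI50, concentration required for 50% inhibition of growth.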 Activity calls are given as the source filed them. Cut-off read from the data, not from the text of the source: active = GI50 up to about 1.1 µM and inactive = higher.

Columns and labels:
Assay in all cases: NCI tumour cell line growth inhibition, 48 h
A498 = test system: A498
ACHN = test system: ACHN
CAKI-1 = test system: CAKI-1
CCRF-CEM = test system: CCRF-CEM
COLO 205 = test system: COLO 205
HCT-15 = test system: HCT-15
HOP-92 = test system: HOP-92
KM12 = test system: KM12
Malme-3M = test system: Malme-3M
NCI-H226 = test system: NCI-H226
NCI-H23 = test system: NCI-H23
NCI/ADR-RES = test system: NCI/ADR-RES
OVCAR-4 = test system: OVCAR-4
PC-3 = test system: PC-3
SF-539 = test system: SF-539
SK-MEL-28 = test system: SK-MEL-28
SK-MEL-5 = test system: SK-MEL-5
SNB-19 = test system: SNB-19
U-251 = test system: U-251
UO-31 = test system: UO-31

| SMILES | GI50 (A498) | GI50 (ACHN) | GI50 (CAKI-1) | GI50 (CCRF-CEM) | GI50 (COLO 205) | GI50 (HCT-15) | GI50 (HOP-92) | GI50 (KM12) | GI50 (Malme-3M) | GI50 (NCI-H226) | GI50 (NCI-H23) | GI50 (NCI/ADR-RES) | GI50 (OVCAR-4) | GI50 (PC-3) | GI50 (SF-539) | GI50 (SK-MEL-28) | GI50 (SK-MEL-5) | GI50 (SNB-19) | GI50 (U-251) | GI50 (UO-31) |
| --- | --- | --- | --- | --- | --- | --- | --- | --- | --- | --- | --- | --- | --- | --- | --- | --- | --- | --- | --- | --- |
| CC1=C(SCCO)C(=O)c2ccccc2C1=O | 16.9 µM (inactive) | 3.52 µM (inactive) | 14.9 µM (inactive) | 1.82 µM (inactive) | 11.1 µM (inactive) | 7.35 µM | 1.7 µM (inactive) | 13.6 µM (inactive) | 14.2 µM (inactive) | 14.7 µM (inactive) | 12.6 µM (inactive) | 14.3 µM (inactive) | 3.31 µM (inactive) | 11.4 µM (inactive) | 12.1 µM (inactive) | 11 µM (inactive) | 13.3 µM (inactive) | 25.4 µM (inactive) | 13.3 µM (inactive) | 8.63 µM (inactive) |
| Nc1n[nH]c2c1Cc1c(n(Cc3ccc(Cl)cc3)c3ccccc13)C(=O)N2 | 13.7 µM (inactive) | – | 11.4 µM (inactive) | 8.38 µM (inactive) | 11.5 µM (inactive) | 4.12 µM | 12.9 µM (inactive) | – | 14.7 µM (inactive) | 11.1 µM (inactive) | 10.6 µM (inactive) | 19.9 µM (inactive) | 13.8 µM (inactive) | 11.2 µM (inactive) | 15.4 µM (inactive) | 38.1 µM (inactive) | 3.69 µM (inactive) | – | > 10 µM (inactive) | 4.82 µM (inactive) |
| COc1cc(OC)cc(Oc2nc3cc(F)c(F)cc3nc2-c2ccccc2)c1 | > 100 µM (inactive) | > 100 µM (inactive) | > 100 µM (inactive) | > 100 µM (inactive) | > 100 µM (inactive) | > 100 µM | > 100 µM (inactive) | > 100 µM (inactive) | > 100 µM (inactive) | > 100 µM (inactive) | > 100 µM (inactive) | > 100 µM (inactive) | > 100 µM (inactive) | > 100 µM (inactive) | > 100 µM (inactive) | > 100 µM (inactive) | > 100 µM (inactive) | > 100 µM (inactive) | > 100 µM (inactive) | > 100 µM (inactive) |
| COc1ccc2nc3c(C)cc4ccccc4n3c2c1 | 11.9 µM (inactive) | 47.3 µM (inactive) | – | 47.6 µM (inactive) | > 10 µM (inactive) | 56.5 µM | 50.8 µM (inactive) | > 100 µM (inactive) | > 100 µM (inactive) | > 100 µM (inactive) | > 100 µM (inactive) | > 100 µM (inactive) | – | 46.3 µM (inactive) | 86.9 µM (inactive) | > 100 µM (inactive) | 57.9 µM (inactive) | > 100 µM (inactive) | 44.7 µM (inactive) | 52 µM (inactive) |
| N#Cc1c(Cl)cc(Cl)n2c1nc1ccccc12 | 22 µM (inactive) | 2.64 µM (inactive) | 3.43 µM (inactive) | 2.49 µM (inactive) | 3.52 µM (inactive) | 3.43 µM | 4.85 µM (inactive) | 18.3 µM (inactive) | 2.76 µM (inactive) | 13.8 µM (inactive) | 18.2 µM (inactive) | 12.6 µM (inactive) | 10.4 µM (inactive) | 14.3 µM (inactive) | 4.47 µM (inactive) | 7.35 µM (inactive) | 14.3 µM (inactive) | 22 µM (inactive) | 20 µM (inactive) | 3.63 µM (inactive) |
| Brc1ccc2[nH]cc([C@@H]3CN[C@@H](c4c[nH]c5ccc(Br)cc45)CN3)c2c1 | 15 µM (inactive) | 2.33 µM (inactive) | 8.93 µM (inactive) | 2.16 µM (inactive) | 1.96 µM (inactive) | 9.44 µM | 1.36 µM (inactive) | 2.07 µM (inactive) | 14.8 µM (inactive) | 7.55 µM (inactive) | 9.95 µM (inactive) | 7.66 µM (inactive) | 4.76 µM (inactive) | 3.35 µM (inactive) | 10.6 µM (inactive) | 13.7 µM (inactive) | 7.93 µM (inactive) | 11.4 µM (inactive) | 4.39 µM (inactive) | 2.42 µM (inactive) |
